{"source": "paper PMC4466390", "about": "“Canonical and Noncanonical Sites Determine NPT2A Binding Selectivity to NHERF1 PDZ1” (PLoS ONE, 2015)", "key": {"[1]": {"target": "T1, NHERF1 PDZ1 H27N/E43D (1–120) (Homo sapiens, UniProt O14745, E43D/H27N)", "T1 construct": "PDZ1 H27N/E43D (1–120)", "T1 sequence (O14745 1-120 H27N/E43D)": "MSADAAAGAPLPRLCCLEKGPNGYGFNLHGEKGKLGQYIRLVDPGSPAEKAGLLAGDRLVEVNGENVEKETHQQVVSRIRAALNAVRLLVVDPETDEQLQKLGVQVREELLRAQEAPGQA", "assay": "ITC, PDZ1 H27N/E43D (1–120)", "assay_type": "binding", "method": "(§1) ITC measurements were performed with a MicroCalTM Auto-iTC200 system (GE Healthcare) at 25°C. Before measurement, samples were dialyzed overnight at 4°C in a buffer containing 10 mM Hepes (pH 7.5), 10 mM NaCl, 0.5 mM EDTA, and 0.5 mM ββ-mercaptoethanol. For determining NPT2A binding to PDZ constructs, the reaction cells were filled with 460 μl of 25 μM of the indicated PDZ protein. The ligand NPT2A (200–250 μM), was titrated into the cell in 19 injections of 2 μl each, with 150 s intervals between each injection. To remove the contribution of NPT2A dilution heat, a control experiment has been performed by titrating NPT2A into the buffer, which was then subtracted from the actual experimental data.\n(§2) The ITC data were analyzed using Microcal Origin 7.0 and the manufacturer's provided VPViewer module to yield the association constant (Ka), stoichiometry (n), and the observed enthalpy change (ΔH°) for the binding reactions. Analysis of ITC data directly yielded ΔH° and Ka. The Gibbs energy calculated using the equation: ΔG°=−RTlnKa (3)\n(§3) The entropy change was then obtained using the standard thermodynamic expression."}, "NHERF1 PDZ1 (1–120)": {"target": "T2, NHERF1 PDZ1 (1–120) (Homo sapiens, UniProt O14745)", "T2 construct": "PDZ1 (1–120)", "T2 sequence (O14745 1-120)": "T1 sequence (O14745 1-120 H27N/E43D) with N27H, D43E", "assay": "ITC, PDZ1 (1–120)", "assay_type": "binding", "conditions": "25°C", "method": "as §1, §2, §3"}, "NHERF1 PDZ1 (1–140)": {"target": "T3, NHERF1 PDZ1 (1–140) (Homo sapiens, UniProt O14745)", "T3 construct": "The expression plasmids pET16-N1P1 encoding PDZ1 (1–140); inferred from pET16 vector and Ni-NTA purification; made in house; host or cells: E. coli BL21 (DE3)", "T3 sequence (O14745 1-140)": "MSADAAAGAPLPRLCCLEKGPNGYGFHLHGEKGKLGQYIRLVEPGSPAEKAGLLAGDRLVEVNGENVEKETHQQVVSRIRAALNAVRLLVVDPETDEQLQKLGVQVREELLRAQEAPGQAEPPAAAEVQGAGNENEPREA", "assay": "FP saturation binding, PDZ1 (1–140)", "conditions": "acidic pH (5.5, 6.0) compared to pH 7.4"}, "NHERF1 PDZ1 and PDZ2": {"test_system": "NHERF1 PDZ1 and PDZ2", "conditions": "PDZ1 versus PDZ2; ref [10],[14]–[16]; cited from earlier work", "source_text": "Na^+/H^+ Exchanger Regulatory Factor-1 (NHERF1), also known as the 50-kDa ezrin-binding protein EBP50, is a multi-domain scaffolding protein that coordinates the assembly and trafficking of transmembrane receptors and ion channels. […] PDZ domains of NHERF1 recognize the X-S/T-X-ΦCOO ^- sequence of target partners (class I PDZ-binding motifs), where X is promiscuous and Φ is a hydrophobic residue. By conve ..."}, "NHERF1 PDZ2 N167H/D183E": {"target": "T4, NHERF1 PDZ2 N167H/D183E (Homo sapiens, UniProt O14745, D183E/N167H)", "T4 construct": "pET16-N1P2 encoding PDZ2 (133–300) of NHERF1; inferred from pET16 vector and Ni-NTA purification; made in house; host or cells: E. coli BL21 (DE3)", "T4 sequence (O14745 133-300 N167H/D183E)": "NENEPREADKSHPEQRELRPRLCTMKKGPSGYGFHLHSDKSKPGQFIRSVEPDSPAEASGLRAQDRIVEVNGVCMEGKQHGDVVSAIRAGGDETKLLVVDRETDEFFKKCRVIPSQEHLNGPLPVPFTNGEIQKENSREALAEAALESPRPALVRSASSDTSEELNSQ", "assay": "FP saturation binding, PDZ2 N167H/D183E", "conditions": "Asn167His/Asp183Glu PDZ2"}, "NHERF1 PDZ1 E43D (1–120)": {"target": "T5, NHERF1 PDZ1 E43D (1–120) (Homo sapiens, UniProt O14745, E43D)", "T5 construct": "PDZ1 E43D (1–120)", "T5 sequence (O14745 1-120 E43D)": "T1 sequence (O14745 1-120 H27N/E43D) with N27H", "assay": "ITC, PDZ1 E43D (1–120)", "assay_type": "binding", "method": "as §1, §2, §3"}, "NHERF1 PDZ1 H27N (1–120)": {"target": "T6, NHERF1 PDZ1 H27N (1–120) (Homo sapiens, UniProt O14745, H27N)", "T6 construct": "PDZ1 H27N (1–120)", "T6 sequence (O14745 1-120 H27N)": "T1 sequence (O14745 1-120 H27N/E43D) with D43E", "assay": "ITC, PDZ1 H27N (1–120)", "assay_type": "binding", "method": "as §1, §2, §3"}, "NHERF1 PDZ2 D183E": {"target": "T7, NHERF1 PDZ2 D183E (Homo sapiens, UniProt O14745, D183E)", "T7 construct": "pET16-N1P2 encoding PDZ2 (133–300) of NHERF1; inferred from pET16 vector and Ni-NTA purification; made in house; host or cells: E. coli BL21 (DE3)", "T7 sequence (O14745 133-300 D183E)": "T4 sequence (O14745 133-300 N167H/D183E) with H35N", "assay": "FP saturation binding, PDZ2 D183E", "conditions": "Asp183Glu PDZ2"}}, "note": "Numbering of substitutions follows the chain as printed. “Also recorded” adds a separate entry of the source. Where a SMILES comes first, the peptide text is derived from it. The star is where a group is joined. X1 = CN(C)c1ccc2c(-c3ccc(C(=O)*)cc3C(=O)[O-])c3ccc(=[N+](C)C)cc-3oc2c1", "data": [{"compound": "CC(C)C[C@H](NC(=O)[C@H](CCCNC(=N)N)NC(=O)[C@@H](NC(=O)[C@H](C)NC(=O)[C@H](CC(N)=O)NC(=O)[C@H](Cc1c[nH]cn1)NC(=O)[C@H](Cc1c[nH]cn1)NC(=O)[C@H](C)NC(=O)[C@@H]1CCCN1C(=O)[C@H](CC(C)C)NC(=O)[C@H](C)NC(=O)[C@H](CC(C)C)NC(=O)[C@H](CCCNC(=N)N)NC(=O)[C@@H]1CCCN1C(=O)[C@H](CO)NC(=O)[C@@H]1CCCN1C(=O)[C@@H](NC(=O)[C@H](C)NC(=O)[C@@H]1CCCN1C(=O)[C@@H]1CCCN1C(=O)[C@H](CC(C)C)NC(=O)[C@H](CCC(=O)O)NC(=O)c1ccc(-c2c3ccc(=[N+](C)C)cc-3oc3cc(N(C)C)ccc23)c(C(=O)[O-])c1)[C@@H](C)O)[C@@H](C)O)C(=O)O", "note": "[NPT2A] (X1-ELPPATPSPRLALPAHHNATRL-OH)", "values": [{"measurement": "N (stoichiometry)", "setting": "[1]; 25°C, pH 7.5", "value": 0.60}, {"measurement": "ΔH^o", "setting": "[1]; 25°C, pH 7.5", "value": "-5.8 ± 0.6", "unit": "kcal/mol"}, {"measurement": "ΔG^o", "setting": "[1]; 25°C, pH 7.5, from Eq 3", "value": "-6.5 ± 0.6", "unit": "kcal/mol"}, {"measurement": "ΔS^o", "setting": "[1]; 25°C, pH 7.5, from Eq 4", "value": "2.3±0.3", "unit": "cal/mol/K"}, {"measurement": "∆∆G^o", "setting": "[1]; His27 by Asn and Glu43 by Asp, versus WT", "value": 1.1, "unit": "kcal/mol"}, {"measurement": "N (stoichiometry)", "setting": "NHERF1 PDZ1 (1–120); pH 7.5", "value": 0.92}, {"measurement": "ΔH^o", "setting": "NHERF1 PDZ1 (1–120); pH 7.5", "value": "-8.2 ± 0.8", "unit": "kcal/mol"}, {"measurement": "ΔG^o", "setting": "NHERF1 PDZ1 (1–120); pH 7.5, from Eq 3", "value": "-7.6 ± 0.8", "unit": "kcal/mol"}, {"measurement": "ΔS^o", "setting": "NHERF1 PDZ1 (1–120); pH 7.5, from Eq 4", "value": "-2.1±0.2", "unit": "cal/mol/K"}, {"measurement": "binding affinity at acidic pH", "setting": "NHERF1 PDZ1 (1–140)", "value": "significantly reduced compared to pH 7.4"}, {"measurement": "binding selectivity", "setting": "NHERF1 PDZ1 and PDZ2", "value": "binds only PDZ1"}, {"measurement": "binding affinity", "setting": "NHERF1 PDZ2 N167H/D183E", "value": "further enhancement of the binding affinity; also recorded: micromolar affinity"}, {"measurement": "effect of Glu43Asp mutation on interaction", "setting": "NHERF1 PDZ1 E43D (1–120); FP and ITC", "value": "decrease the interaction with NPT2A"}, {"measurement": "∆∆H^o", "setting": "NHERF1 PDZ1 E43D (1–120); Glu43Asp PDZ1 minus WT, ITC", "value": 5.2, "unit": "kcal/mol"}, {"measurement": "∆∆S^o", "setting": "NHERF1 PDZ1 E43D (1–120); Glu43Asp PDZ1 minus WT, ITC", "value": 14.8, "unit": "cal mol^-1 K^-1"}, {"measurement": "N (stoichiometry)", "setting": "NHERF1 PDZ1 E43D (1–120); ITC, 25°C, pH 7.5", "value": 0.60}, {"measurement": "ΔH^o", "setting": "NHERF1 PDZ1 E43D (1–120); ITC, 25°C, pH 7.5", "value": "-3.0 ± 0.3", "unit": "kcal/mol"}, {"measurement": "ΔG^o", "setting": "NHERF1 PDZ1 E43D (1–120); ITC, 25°C, pH 7.5, from Eq 3", "value": "-6.8 ± 0.7", "unit": "kcal/mol"}, {"measurement": "ΔS^o", "setting": "NHERF1 PDZ1 E43D (1–120); ITC, 25°C, pH 7.5, from Eq 4", "value": "12.7±1.0", "unit": "cal/mol/K"}, {"measurement": "∆∆G^o", "setting": "NHERF1 PDZ1 E43D (1–120); ∆G^o E43D - ∆G^o WT, ITC", "value": 0.8, "unit": "kcal/mol"}, {"measurement": "effect of His27Asn mutation on interaction", "setting": "NHERF1 PDZ1 H27N (1–120); FP and ITC", "value": "decrease the interaction with NPT2A"}, {"measurement": "N (stoichiometry)", "setting": "NHERF1 PDZ1 H27N (1–120); ITC, 25°C, pH 7.5", "value": 0.61}, {"measurement": "ΔH^o", "setting": "NHERF1 PDZ1 H27N (1–120); ITC, 25°C, pH 7.5", "value": "-7.5 ± 0.7", "unit": "kcal/mol"}, {"measurement": "ΔG^o", "setting": "NHERF1 PDZ1 H27N (1–120); ITC, 25°C, pH 7.5, from Eq 3", "value": "-7.2 ± 0.7", "unit": "kcal/mol"}, {"measurement": "ΔS^o", "setting": "NHERF1 PDZ1 H27N (1–120); ITC, 25°C, pH 7.5, from Eq 4", "value": "-0.86±0.08", "unit": "cal/mol/K"}, {"measurement": "∆∆G^o", "setting": "NHERF1 PDZ1 H27N (1–120); ∆G^o H27N - ∆G^o WT, ITC", "value": "about 0.4 kcal/mol"}, {"measurement": "∆∆H^o", "setting": "NHERF1 PDZ1 H27N (1–120); ∆H^o H27N - ∆H^o WT, ITC", "value": 0.7, "unit": "kcal/mol"}, {"measurement": "∆∆S^o", "setting": "NHERF1 PDZ1 H27N (1–120); ∆S^o H27N - ∆S^o WT, ITC", "value": 1.3, "unit": "cal mol^-1 K^-1"}, {"measurement": "binding affinity", "setting": "NHERF1 PDZ2 D183E", "value": "micromolar affinity"}]}]}
